Where only a bound is given, the exact number is not on record here.

The target in one series is T1, PDGFRβ (Homo sapiens, UniProt P09619).
T1 construct: expressed in transfected cells; host or cells: porcine aorta endothelial (PAE) cells
In words: PAE-PDGFRβ phosphorylation in PAE-PDGFRB cells assay. The format is cell-based. The note with it: PAE cells overexpressing human PDGFRβ, PDGF-BB stimulated; read-out: PAE PDGFR autophos IC50. An outline of the steps: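 PAE cells overexpressing human PDGFRβ, serum-starved 16 h (0.1% FBS), compound 1 h at 37° C (0.5% DMSO), then 1 μg/mL PDGF-BB with 2 mM Na3VO4 for 8 min. Receptor captured by anti-PDGFRβ, phosphotyrosine detected by HRP-PY20/TMB at 450 nm; IC50 by four-parameter fit.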

The next series relates to HUVEC. As to the kind of experiment: bFGF HUVEC proliferation. Type of series: cell-based, human. The note with it: bFGF stimulated HUVEC.
In series [1] the test system is human umbilical vein endothelial cells (HUVEC). As to the kind of experiment: HUVEC+VEGF proliferation assay. The format is cell-based. The conditions noted are these: VEGF 6 ng/mL, MTT. An outline of the steps: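 Proliferation driven by VEGF (final 6 ng/mL) was quantified by MTT reduction (A595) 72 h after stimulation. Passage 3-4 HUVEC were starved for 24 h in 1% FBS F12K and given test agent 1 h before VEGF, with DMSO at 0.1% final.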

Series [2] concerns the target T2, unphosphorylated VEGF-R2Δ50 (FLVK) (Homo sapiens, UniProt P35968, DEL940-989/E990V).
T2 construct: VEGF-R2Δ50 contains residues 806-939 and 990-1171; made in house; host or cells: baculovirus/insect cell system
In words: VEGF-R2 coupled spectrophotometric assay, unphosphorylated construct (FLVK). Type of series: biochemical. The conditions noted are these: for inhibition at 0.05 µM: percent inhibition at 50 nM. An outline of the steps: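 Continuous coupled assay (PEP, PK, LDH; NADH loss at 340 nm) in 200 mM HEPES pH 7.5 with 3 mM ATP, 20 mM poly(E4Y1), 60 mM MgCl2 plus 2 mM MnCl2, started with 5-40 nM non-autophosphorylated VEGF-R2Δ50. Ki values from activity across compound concentrations, Morrison fit.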

A further series is described as follows: Mouse PK assay. Type of series: in vivo, B6 female mice. The conditions noted are these: po. On the procedure:
The pharmacokinetics (e.g., absorption and elimination) of drugs in mice were analyzed using the following experiment. Test compounds were formulated as a suspension in a 30:70 (PEG 400: acidified H2O) vehicle. This solution was administered orally (p.o.) and intraperitoneally (i.p.) at 50 mg/kg to two distinct groups (n=4) of B6 female mice. Blood samples were collected via an orbital bleed at time points: 0 hour (pre-dose), 0.5 hr, 1.0 hr, 2.0 hr, and 4.0 hr post dose. Plasma was obtained from each sample by centrifugation at 2500 rpm for 5 min. Test compound was extracted from the plasma by an organic protein precipitation method. For each time bleed, 50 μL of plasma was combined with 1.0 mL of acetonitrile, vortexed for 2 min. and then spun at 4000 rpm for 15 min. to precipitate the protein and extract out the test compound. Next, the acetonitrile supernatant (the extract containing test compound) was poured into new test tubes and evaporated on a hot plate (25° C.) under a steam of N2 gas. To each tube containing the dried test compound extract, 125 μL of mobile phase (60:40, 0.025 M NH4H2PO4+2.5 mL/L TEA:acetonitrile) was added. The test compound was resuspended in the mobile phase by vortexing and more protein was removed by centrifugation at 4000 rpm for 5 min. Each sample was poured into an HPLC vial for test compound analysis on an Hewlett Packard 1100 series HPLC with UV detection. From each sample, 95 μL was injected onto a Phenomenex-Prodigy reverse phase C-18, 150×3.2 mm column and eluted with a 45-50% acetonitrile gradient run over 10 min. Test-compound plasma concentrations (μg/mL) were determined by a comparison to standard curve (peak area vs. conc. μg/mL) using known concentrations of test compound extracted from plasma samples in the manner described above. Along with the standards and unknowns, three groups (n=4) of quality controls (0.25 μg/mL, 1.5 μg/mL, and 7.5 μg/mL) were run to insure the consistency of the analysis. […] The quantitated test samples were plotted for visual display using Kaleidagraph software and their pharmacokinetic parameters were determined using WIN NONLIN software.

For another series, the target named is T3, KDR (VEGFR2) (Homo sapiens, UniProt P35968).
T3 construct: expressed in transfected cells; host or cells: porcine aorta endothelial (PAE) cells
In words: KDR (VEGFR2) phosphorylation in PAE-KDR cells assay. Type of series: cell-based. The conditions noted are these: PAE cells overexpressing human KDR, VEGF stimulated; read-out: PAE KDR autophos IC50. The method, then: This assay determines the ability of a test compound to inhibit the autophosphorylation of KDR in porcine aorta endothelial (PAE)-KDR cells. PAE cells that overexpress human KDR were used in this assay. The cells were cultured in Ham's F12 media supplemented with 10% fetal bovine serum (FBS) and 400 ug/mL G418. Thirty thousands cells were seeded into each well of a 96-well plate in 75 μL of growth media and allowed to attach for 6 hours at 37° C. Cells were then exposed to the starvation media (Ham's F12 media supplemented with 0.1% FBS) for 16 hours. After the starvation period was over, 10 μL of test agent in 5% DMSO in starvation media were added to the test wells and 10 μL of the vehicle (5% DMSO in starvation media) were added into the control wells. The final DMSO concentration in each well was 0.5%. Plates were incubated at 37° C. for 1 hour and the cells were then stimulated with 500 ng/ml VEGF (commercially available from R & D System) in the presence of 2 mM Na3VO4 for 8 minutes. The cells were washed once with 1 mm Na3VO4 in HBSS and lysed by adding 50 μL per well of lysis buffer. One hundred μL of dilution buffer were then added to each well and the diluted cell lysate was transferred to a 96-well goat ant-rabbit coated plate (commercially available from Pierce) which was pre-coated with Rabbit anti Human Anti-flk-1 C-20 antibody (commercially available from Santa Cruz). The plates were incubated at room temperature for 2 hours and washed seven times with 1% Tween 20 in PBS. HRP-PY20 (commercially available from Santa Cruz) was diluted and added to the plate for a 30-minute incubation. Plates were then washed again and TMB peroxidase substrate (commercially available from Kirkegaard & Perry) was added for a 10-minute incubation. One hundred μL of 0.09 N H2SO4 was added to each well of the 96-well plates to stop the reaction. Phosphorylation status was assessed by spectrophotometer reading at 450 nm. IC50 values were calculated by curve fitting using a four-parameter analysis.

T1 sequence (P09619 33-1106): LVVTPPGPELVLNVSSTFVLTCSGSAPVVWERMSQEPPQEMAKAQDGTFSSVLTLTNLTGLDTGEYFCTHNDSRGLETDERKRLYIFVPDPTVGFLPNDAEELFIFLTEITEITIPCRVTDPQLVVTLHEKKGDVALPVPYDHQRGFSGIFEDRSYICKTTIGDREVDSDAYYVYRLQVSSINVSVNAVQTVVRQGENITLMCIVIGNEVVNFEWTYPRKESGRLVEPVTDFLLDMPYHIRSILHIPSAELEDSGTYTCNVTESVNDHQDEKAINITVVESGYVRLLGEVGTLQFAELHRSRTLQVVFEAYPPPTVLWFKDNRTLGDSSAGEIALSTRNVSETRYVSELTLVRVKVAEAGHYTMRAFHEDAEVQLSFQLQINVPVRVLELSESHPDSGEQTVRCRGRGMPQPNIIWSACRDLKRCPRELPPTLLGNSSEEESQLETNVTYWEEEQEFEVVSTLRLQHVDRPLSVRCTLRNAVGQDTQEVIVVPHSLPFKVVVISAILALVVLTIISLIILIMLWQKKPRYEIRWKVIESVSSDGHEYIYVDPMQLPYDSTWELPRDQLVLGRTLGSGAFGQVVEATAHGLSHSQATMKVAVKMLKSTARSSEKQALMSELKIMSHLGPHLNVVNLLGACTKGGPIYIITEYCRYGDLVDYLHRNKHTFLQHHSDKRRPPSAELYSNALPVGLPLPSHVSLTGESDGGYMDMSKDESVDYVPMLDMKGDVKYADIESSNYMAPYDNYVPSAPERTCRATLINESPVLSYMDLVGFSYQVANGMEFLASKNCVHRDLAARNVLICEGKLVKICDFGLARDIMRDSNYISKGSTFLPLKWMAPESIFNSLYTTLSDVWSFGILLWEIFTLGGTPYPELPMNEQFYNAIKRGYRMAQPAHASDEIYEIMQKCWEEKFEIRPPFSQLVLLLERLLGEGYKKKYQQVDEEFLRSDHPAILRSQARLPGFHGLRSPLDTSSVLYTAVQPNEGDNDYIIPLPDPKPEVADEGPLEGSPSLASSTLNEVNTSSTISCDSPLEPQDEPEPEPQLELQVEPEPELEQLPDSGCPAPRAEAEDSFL
T2 sequence (P35968 with tags, fused parts or gaps DEL940-989/E990V limits assumed): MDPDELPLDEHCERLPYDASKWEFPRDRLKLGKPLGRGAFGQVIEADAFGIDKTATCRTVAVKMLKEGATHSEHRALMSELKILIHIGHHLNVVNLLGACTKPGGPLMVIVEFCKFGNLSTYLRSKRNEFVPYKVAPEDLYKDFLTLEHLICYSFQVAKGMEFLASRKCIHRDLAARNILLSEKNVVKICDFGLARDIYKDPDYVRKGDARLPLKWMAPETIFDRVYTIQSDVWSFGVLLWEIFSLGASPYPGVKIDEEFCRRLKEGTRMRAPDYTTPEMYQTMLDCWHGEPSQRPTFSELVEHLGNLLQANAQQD
T3 sequence (P35968 20-1356): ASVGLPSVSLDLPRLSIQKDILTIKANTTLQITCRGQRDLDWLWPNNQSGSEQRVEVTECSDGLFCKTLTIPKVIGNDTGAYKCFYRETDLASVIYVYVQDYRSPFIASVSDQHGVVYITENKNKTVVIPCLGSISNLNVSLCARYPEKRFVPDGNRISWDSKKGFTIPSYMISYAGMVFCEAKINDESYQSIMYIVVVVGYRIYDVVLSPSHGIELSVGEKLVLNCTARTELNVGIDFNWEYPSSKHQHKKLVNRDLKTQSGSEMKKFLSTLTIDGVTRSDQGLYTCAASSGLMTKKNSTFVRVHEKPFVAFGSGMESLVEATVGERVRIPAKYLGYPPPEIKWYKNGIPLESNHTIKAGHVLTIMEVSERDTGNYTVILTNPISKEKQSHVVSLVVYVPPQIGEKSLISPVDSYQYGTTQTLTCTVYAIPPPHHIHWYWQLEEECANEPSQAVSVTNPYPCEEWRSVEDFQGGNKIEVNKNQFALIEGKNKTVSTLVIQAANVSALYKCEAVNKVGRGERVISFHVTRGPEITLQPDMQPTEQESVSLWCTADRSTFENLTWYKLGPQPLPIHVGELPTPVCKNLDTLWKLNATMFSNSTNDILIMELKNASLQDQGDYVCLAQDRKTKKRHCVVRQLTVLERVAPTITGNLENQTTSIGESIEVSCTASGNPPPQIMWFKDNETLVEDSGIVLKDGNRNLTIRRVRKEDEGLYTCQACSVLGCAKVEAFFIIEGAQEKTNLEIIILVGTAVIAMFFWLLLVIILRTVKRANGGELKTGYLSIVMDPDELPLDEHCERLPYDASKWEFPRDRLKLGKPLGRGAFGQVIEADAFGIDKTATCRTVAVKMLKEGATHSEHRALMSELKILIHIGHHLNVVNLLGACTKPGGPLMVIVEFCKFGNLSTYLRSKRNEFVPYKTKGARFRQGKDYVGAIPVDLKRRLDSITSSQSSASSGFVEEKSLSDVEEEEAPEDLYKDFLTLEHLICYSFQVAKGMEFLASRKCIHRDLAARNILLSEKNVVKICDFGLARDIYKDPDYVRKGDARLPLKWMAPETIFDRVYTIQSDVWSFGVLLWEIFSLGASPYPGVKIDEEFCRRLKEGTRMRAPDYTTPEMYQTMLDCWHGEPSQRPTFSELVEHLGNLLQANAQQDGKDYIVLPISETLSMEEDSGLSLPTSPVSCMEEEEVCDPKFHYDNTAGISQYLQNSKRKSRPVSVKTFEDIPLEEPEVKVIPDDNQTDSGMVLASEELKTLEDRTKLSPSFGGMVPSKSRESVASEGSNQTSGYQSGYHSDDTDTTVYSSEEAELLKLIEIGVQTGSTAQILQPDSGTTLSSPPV

In the case of “5-[2-(3S-Methoxy-pyrrolidine-1-carbonyl)-thieno[3,2-b]pyridin-7-ylamino]-2-methyl-2,3-dihydro-indole-1-carboxylic acid methylamide [Example 1u]”, the values for the IC50 (on PDGFRβ; with HUVEC; in series [1] (72 hours)) were > 100 nM, 4840 nM and > 10 nM, respectively.
In series [2], `CNC(=O)n1c(C)cc2cc(Nc3ccnc4cc(C(=O)N5CC[C@H](O)C5)sc34)ccc21` [Example 1i, 5-[2-(3S-Hydroxy-pyrrolidine-1-carbonyl)-thieno[3,2-b]pyridin-7-ylamino]-2-methyl-indole-1-carboxylic acid methylamide] showed a Ki of 0.69 nM. In addition, at 0.05 µM the inhibition in series [2] was 93%. Moreover, the IC50 on PDGFRβ is ~1000 nM; in the series with HUVEC (Homo sapiens, HUVEC) it was 44.2 nM; in series [1] (Homo sapiens, HUVEC, 72 h), 1.03 nM.
In series [2], `C#CCNC(=O)n1c(C)cc2cc(Nc3ccnc4cc(C(=O)N5CC[C@@H](OC)C5)sc34)ccc21` [Example 1p, 5-[2-(3R-Methoxy-pyrrolidine-1-carbonyl)-thieno[3,2-b]pyridin-7-ylamino]-2-methyl-indole-1-carboxylic acid prop-2-ynylamide] returned a Ki of 0.2 nM and an inhibition at 0.05 µM of 93%. For the same compound, the concentration for half-maximal inhibition (IC50) at PDGFRβ came to 56 nM. The IC50 in the series with HUVEC (Homo sapiens, HUVEC) was 119 nM. In “Mouse PK assay” (female, B6, mouse, plasma, 50 mg/kg), this compound registered an AUC of 2530 ng·h/mL. The Cmax in the series “Mouse PK assay” (female, B6, mouse, plasma, 50 mg/kg, p.o., 50 mg/kg, read-out: Mouse Cmax, po ng-h/mL) was determined as 1230 ng/mL. Besides, the “Mouse Cmin, po” value in “Mouse PK assay” is recorded as 34 ng/mL.
Regarding `COC[C@@H]1C[C@@H](O)CN1C(=O)c1cc2nccc(Nc3ccc4c(c3)cc(C)n4C(=O)NC3CC3)c2s1` [Example 3h], the affinity in series [2] corresponds to a Ki of 1.19 nM. In series [2], this compound had an inhibition at 0.05 µM of 95%. Besides, the IC50 came out at 225 nM in the series with HUVEC (Homo sapiens, HUVEC) and 1.94 nM in series [1] (Homo sapiens, HUVEC, 72 h).
In series [2], `CNC(=O)n1c(C)cc2cc(Oc3ccnc4cc(C(=O)N(C)CCO)sc34)ccc21` [Example 3n, 7-(2-Methyl-1-methylcarbamoyl-1H-indol-5-yloxy)-thieno[3,2-b]pyridine-2-carboxylic acid (2-hydroxy-ethyl)-methyl-amide] gave a Ki of 0.505 nM. This compound had an inhibition at 0.05 µM in series [2] of 88%. Further, the IC50 came to 76.3 nM on PDGFRβ; 87 nM in the series with HUVEC (Homo sapiens, HUVEC); 0.267 nM in series [1] (Homo sapiens, HUVEC, 72 h).
In the same order, the values of `CNC(=O)n1c(C)cc2cc(Oc3ccnc4cc(C(=O)N5CC(F)(F)C[C@H]5CO)sc34)ccc21` [Example 3p, 5-[2-(4,4-Difluoro-2-hydroxymethyl-pyrrolidine-1-carbonyl)-thieno[3,2-b]pyridin-7-yloxy]-2-methyl-indole-1-carboxylic acid methyl-amide] are 0.98 nM, 81%, 212 nM, 227 nM and 0.33 nM.
`CO[C@H]1CCN(C(=O)c2cc3nccc(Oc4ccc5c(c4F)c(Cl)c(C)n5C(=O)NC4CC4)c3s2)C1` [Example 6c, 3-Chloro-4-fluoro-5-[2-(3S-methoxy-pyrrolidine-1-carbonyl)-thieno[3,2-b]pyridin-7-yloxy]-2-methyl-indole-1-carboxylic acid cyclopropyl-amide] yielded a Ki in series [2] of 0.688 nM. For the same compound, in series [2], the inhibition at 0.05 µM worked out at 97%. The half-maximal inhibitory concentration (IC50) on PDGFRβ amounted to 32 nM; in series [1] (Homo sapiens, HUVEC, 72 h), 0.99 nM; at KDR (VEGFR2), 1.27 nM.
In series [2], `CNC(=O)n1c(C)cc2cc(Oc3ccnc4cc(C(=O)N5CC[C@@H](N(C)C)C5)sc34)ccc21` [Example 8g, 5-[(2-{[(3R)-3-(Dimethylamino)pyrrolidin-1-yl]carbonyl}thieno[3,2-b]pyridin-7-yl)oxy]-N,2-dimethyl-1H-indole-1-carboxamide] gave a Ki of 0.643 nM. For the same compound, the inhibition at 0.05 µM in series [2] came to 99%. The IC50 on PDGFRβ was 15.4 nM; in the series with HUVEC (Homo sapiens, HUVEC), 9 nM; in series [1] (Homo sapiens, HUVEC, 72 h), 0.15 nM.
In turn, `CO[C@H]1CN(C(=O)c2cc3nccc(Oc4ccc5c(c4)cc(C)n5C(=O)NCCO)c3s2)CC1F` (stereo partly drawn) [Example 8k, 5-[(2-{[(4S)-3-Fluoro-4-methoxypyrrolidin-1-yl]carbonyl}thieno[3,2b]pyridin-7-yl)oxy]-N-(2-hydroxyethyl)-2-methyl-1H-indole-1-carboxamide] came in with a Ki in series [2] of 0.868 nM. Also, the inhibition at 0.05 µM in series [2] came out at 95%. Besides, the IC50 in the series on HUVEC (Homo sapiens, HUVEC) was 18 nM; in series [1] (Homo sapiens, HUVEC, 72 h), 0.32 nM.
Take `Cc1cc2cc(Oc3ccnc4cc(C(=O)N5CCC5)sc34)ccc2n1C(=O)NCCCO` [Example 8n, 5-[2-(Azetidine-1-carbonyl)-thieno[3,2-b]pyridin-7-yloxy]-2-methyl-indole-1-carboxylic acid (3-hydroxy-propyl)-amide]: in series [2], the Ki turned out to be 0.089 nM and the inhibition at 0.05 µM was 97%. Also, at PDGFRβ, the IC50 worked out at 10.2 nM. Moreover, the IC50 in the series on HUVEC (Homo sapiens, HUVEC) turned out to be 58 nM.
Consider `CNC(=O)n1c(C)cc2cc(Oc3ccnc4cc(C(=O)N5CC(O)C5)sc34)ccc21` [Example 8o, 5-[2-(3-Hydroxy-azetidine-1-carbonyl)-thieno[3,2-b]pyridin-7-yloxy]-2-methyl-indole-1-carboxylic acid methylamide], for which, in series [2], affinity was put at a Ki of 4.47 nM and 0.05 µM produced 74% inhibition. This compound returned an IC50 with HUVEC (Homo sapiens, HUVEC) of 61 nM. Also, the IC50 in series [1] (Homo sapiens, HUVEC, 72 h) stood at 1.25 nM.
In series [2], `CO[C@H]1CCN(C(=O)c2cc3nccc(Oc4ccc5c(c4)cc(C)n5C(=O)NCCCO)c3s2)C1` [Example 9b, 5-[2-(3S-Methoxy-pyrrolidine-1-carbonyl)-thieno[3,2-b]pyridin-7-yloxy]-2-methyl-indole-1-carboxylic acid (3-hydroxy-propyl)-amide] displayed a Ki of 0.488 nM. In series [2], this compound had an inhibition at 0.05 µM of 97%. Also, the IC50 worked out at 60 nM at PDGFRβ; 0.33 nM in series [1] (Homo sapiens, HUVEC, 72 h); 0.67 nM on KDR (VEGFR2).

(Values after patent US6833456B2, “Indolyl-urea derivatives of thienopyridines useful as antiangiogenic agents, and methods for their use” (Agouron Pharmaceuticals, Inc., priority 2002, dated 2004).)
